How the values were obtained:
[1] = tested on: LNCaP cells; experiment: LNCaP cell proliferation, ASO in combination with MDV3100 (Example 20); assay type: cell-based, human; conditions: for Proliferation (% untreated control) in LNCaP without MDV-3100: 5 days
Description: LNCaP cells were plated at 1,000 cells per well. […] ISIS 549148 was included as a negative control. […] After a treatment period of 5 days, the proliferative capacity of the cancer cells was measured with CellTiter 96® AQueous One or CellTiter-Glo® Solution Cell Proliferation kit (Promega), following the manufacturer's instructions. […]

[2] = tested on: full-length AR; experiment: Western blot of full-length AR in C4-2B cells (time course); assay type: cell-based, human; conditions: 24 hours and 48 hours, normalized to GAPDH
Description: Protein levels in the cells were also analyzed. The cells were harvested in RIPA buffer containing protease inhibitors. The presence of bands for full-length AR was detected by western blot using AR antibody (N-20, SC-816, Santa Cruz Biotechnology).

[3] = tested on: prostate-specific antigen (PSA) mRNA; experiment: Time-course PSA expression in C4-2B cells; assay type: cell-based, human
Description: C4-2B cells were plated at 1,000 cells per well in complete medium. […] ISIS 549148 was included as a negative control. […] After a treatment period of 8 hours, 24 hours, and 48 hours, AR expression was measured with primer probe set hAR-LTS00943. Results are presented in Tables 70-72 as percent expression of AR, relative to non-treated cells.
Expression analysis of prostate-specific antigen (PSA) and TMPRSS2 were also analyzed. Results are presented in Tables 73-75 as percent inhibition of PSA expression and Tables 76-78 as percent inhibition of TMPRSS2 expression, relative to non-treated cells.

[4] = tested on: AR mRNA; experiment: AR RNA expression in LNCaP cells (complete, CSS, CSS+DHT medium); assay type: cell-based, human; conditions: for Percent expression of AR in LNCaP cells cultured in CSS + DHT medium: CSS + DHT (1 nM) medium; for Percent expression of AR in LNCaP cells cultured in CSS + DHT medium / Percent expression of AR in LNCaP cells cultured in CSS medium: 48 hrs; for Percent expression of AR in LNCaP cells cultured in complete medium: 48 hours
Description: Cells were plated at 1,000 cells per well. […] After an incubation period of 48 hours, RNA levels of AR, PSA and TMPRSS2 were measured.
Cells were plated at 2,000 cells per well and cultured in phenol red-free RPMI supplemented with 5% charcoal stripped serum (Gibco) media for 16 hours. […] After an incubation period of 4 hrs, DHT was added to the medium to a final concentration of 1 nM as indicated. RNAs were collected 48 hrs later and levels of AR, PSA and TMPRSS2 were measured.

[5] = tested on: LNCaP cells; experiment: LNCaP cell proliferation (complete or CSS+DHT medium); assay type: cell-based, human; conditions: 5 days; for Proliferation (% untreated control) in LNCaP cells cultured in CSS + DHT medium: CSS + 1 nM DHT medium
Description: After a treatment period of 5 days in complete medium or CSS+1 nM DHT medium, the proliferative capacity of the cancer cells was measured with using CellTiter 96® AQueous One Solution or CellTiter-Glo® solution Cell Proliferation kit (Promega), following the manufacturer's instructions. […] Treatment with ISIS oligonucleotides in CSS+DHT medium reduced the proliferative capacity to a greater extent than treatment with MVD-3100. The proliferative capacity of cells cultured in CSS medium without DHT is 17% of untreated control levels.

[6] = tested on: TMPRSS2 mRNA; experiment: TMPRSS2 expression in C4-2B cells (Example 30); assay type: cell-based, human; conditions: 48 hrs
Description: Cells were plated at 1,000 cells per well. […] ISIS 549148 was included as a negative control. […] After an incubation period of 48 hrs, RNA levels of AR, PSA and TMPRSS2 were measured.
Cells were plated at 2,000 cells per well and cultured in CSS media with 1 nM DHT. […] ISIS 549148 was included as a negative control. […] After an incubation period of 48 hrs, RNA levels of AR, PSA and TMPRSS2 were measured. In the absence of DHT, AR expression in C4-2 cells was 188%, PSA expression was 43% and TMPRSS2 expression was 27% compared to the untreated control.

[7] = tested on: full length AR mRNA; experiment: Full-length AR RNA in 22RV1 cells (complete, CSS+DHT medium); assay type: cell-based, human; conditions: RNAiMax, 48 hrs
Description: Cells were plated at 1,000 cells per well. […] After an incubation period of 48 hrs, RNA levels of full length AR, the V7 variant, PSA and TMPRSS2 were measured.
After an incubation period of 48 hrs, RNA levels of full length AR, the V7 variant, PSA and TMPRSS2 were measured.
Cells were plated at 2,000 cells per well and cultured in CSS media for 16 hours. […] After 4 hrs, 1 nM DHT was added. […] After an incubation period of 48 hrs, RNA levels of AR, AR V7 variant, PSA and TMPRSS2 were measured.

[8] = cynomolgus monkey, in vivo, sc, 40 mg/kg
Description: Prior to the study, the monkeys were kept in quarantine for a 30-day period, during which the animals were observed daily for general health. The monkeys were 2-4 years old and weighed between 2 and 4 kg. Thirteen groups of four randomly assigned male cynomolgus monkeys each were injected subcutaneously with ISIS oligonucleotide or PBS. PBS solution or ISIS oligonucleotides, at a dose of 40 mg/kg, were administered with a loading regimen consisting of four doses on the first week of the study (days 1, 3, 5, and 7), followed by a maintenance regimen consisting of once weekly administration starting on Day 14 (weeks 2 to 6). Subcutaneous injections were performed in clock-wise rotations at 4 sites on the back; one site per dose. The injection sites were delineated by tattoo, while sedated using ketamine, and were separated by a minimum of 3 cm.
To evaluate the effect of ISIS oligonucleotides on hepatic function, the monkeys were fasted overnight. Approximately, 1.5 mL of blood samples were collected on day 44 from all the study groups. Blood was collected in tubes without anticoagulant for serum separation. The tubes were kept at room temperature for a minimum of 90 min and then centrifuged at 3,000 rpm for 10 min. Levels of various liver function markers were measured using a Toshiba 120FR NEO chemistry analyzer (Toshiba Co., Japan).

TGATTTAATGGTTGCA [ISIS 569236] (cEt/MOE gapmer chemistry, further chemistry not given here)
Proliferation (% untreated control) in LNCaP with 0.08 μM MDV-3100 ([1]; ASO dose 0.04 μM + 0.08 μM MDV-3100): 74 % untreated control
Proliferation (% untreated control) in LNCaP with 0.4 μM MDV-3100 ([1]; ASO dose 0.04 μM + 0.4 μM MDV-3100): 48 % untreated control
Proliferation (% untreated control) in LNCaP with 2.0 μM MDV-3100 ([1]; ASO dose 0.04 μM + 2.0 μM MDV-3100): 41 % untreated control
Proliferation (% untreated control) in LNCaP with […] MDV-3100 ([1]; ASO dose 0.04 μM + […] MDV-3100): 92 % untreated control
Proliferation (% untreated control) in LNCaP without MDV-3100 ([1]; ASO dose 0.04 μM): 91 % untreated control
Proliferation (% untreated control) in LNCaP with 0.08 μM MDV-3100 ([1]; ASO dose 0.08 μM + 0.08 μM MDV-3100): 98 % untreated control
Proliferation (% untreated control) in LNCaP with 0.4 μM MDV-3100 ([1]; ASO dose 0.08 μM + 0.4 μM MDV-3100): 61 % untreated control
Proliferation (% untreated control) in LNCaP with 2.0 μM MDV-3100 ([1]; ASO dose 0.08 μM + 2.0 μM MDV-3100): 44 % untreated control
Proliferation (% untreated control) in LNCaP with […] MDV-3100 ([1]; ASO dose 0.08 μM + […] MDV-3100): 104 % untreated control
Proliferation (% untreated control) in LNCaP without MDV-3100 ([1]; ASO dose 0.08 μM): 106 % untreated control
Proliferation (% untreated control) in LNCaP with 0.08 μM MDV-3100 ([1]; ASO dose 0.2 μM + 0.08 μM MDV-3100): 51 % untreated control
Proliferation (% untreated control) in LNCaP with 0.4 μM MDV-3100 ([1]; ASO dose 0.2 μM + 0.4 μM MDV-3100): 41 % untreated control
Proliferation (% untreated control) in LNCaP with 2.0 μM MDV-3100 ([1]; ASO dose 0.2 μM + 2.0 μM MDV-3100): 35 % untreated control
Proliferation (% untreated control) in LNCaP with […] MDV-3100 ([1]; ASO dose 0.2 μM + […] MDV-3100): 58 % untreated control
Proliferation (% untreated control) in LNCaP without MDV-3100 ([1]; ASO dose 0.2 μM): 60 % untreated control
Proliferation (% untreated control) in LNCaP with 0.08 μM MDV-3100 ([1]; ASO dose 1.0 μM + 0.08 μM MDV-3100): 31 % untreated control
Proliferation (% untreated control) in LNCaP with 0.4 μM MDV-3100 ([1]; ASO dose 1.0 μM + 0.4 μM MDV-3100): 27 % untreated control
Proliferation (% untreated control) in LNCaP with 2.0 μM MDV-3100 ([1]; ASO dose 1.0 μM + 2.0 μM MDV-3100): 23 % untreated control
Proliferation (% untreated control) in LNCaP with […] MDV-3100 ([1]; ASO dose 1.0 μM + […] MDV-3100): 29 % untreated control
Proliferation (% untreated control) in LNCaP without MDV-3100 ([1]; ASO dose 1.0 μM): 35 % untreated control
synergy with MDV3100 ([1]; LNCaP cells): synergistic with MDV3100
cell proliferation inhibited, combination ([1]; LNCaP cells, 0.04 μM ASO in combination with 0.08 μM MDV3100): 26%
inhibited cell proliferation, ASO alone ([1]; LNCaP cells, ASO alone at 0.04 μM): 9%
full-length AR protein (western blot) [2]: significantly reduced
Percent inhibition of PSA expression compared to the control group in 8 hours ([3]; 0.04 μM): 18%
Percent inhibition of PSA expression compared to the control group in 24 hours ([3]; 0.04 μM): 10%
Percent inhibition of PSA expression compared to the control group in 48 hours ([3]; 0.04 μM): 4%
Percent inhibition of PSA expression compared to the control group in 8 hours ([3]; 0.2 μM): 3%
Percent inhibition of PSA expression compared to the control group in 24 hours ([3]; 0.2 μM): 34%
Percent inhibition of PSA expression compared to the control group in 48 hours ([3]; 0.2 μM): 45%
Percent inhibition of PSA expression compared to the control group in 8 hours ([3]; 1 μM): 0%
Percent inhibition of PSA expression compared to the control group in 24 hours ([3]; 1 μM): 44%
Percent inhibition of PSA expression compared to the control group in 48 hours ([3]; 1 μM): 68%
Percent inhibition of PSA expression compared to the control group in 8 hours ([3]; 5.0 μM): 0%
Percent inhibition of PSA expression compared to the control group in 24 hours ([3]; 5.0 μM): 54%
Percent inhibition of PSA expression compared to the control group in 48 hours ([3]; 5.0 μM): 76%
PSA expression ([3]; time course): reduced PSA and TMPRSS2 expression in the cells relative to the control set at the 24 hr and 48 hr time points
Percent expression of AR in LNCaP cells cultured in CSS + DHT medium ([4]; 0.04 μM): 104%
Percent expression of AR in LNCaP cells cultured in CSS + DHT medium ([4]; 0.2 μM): 86%
Percent expression of AR in LNCaP cells cultured in CSS + DHT medium ([4]; 1 μM): 55%
Percent expression of AR in LNCaP cells cultured in CSS + DHT medium ([4]; 5.0 μM): 21%
Percent expression of AR in LNCaP cells cultured in CSS medium ([4]; 0.04 μM): 94%
Percent expression of AR in LNCaP cells cultured in CSS medium ([4]; 0.2 μM): 66%
Percent expression of AR in LNCaP cells cultured in CSS medium ([4]; 1 μM): 35%
Percent expression of AR in LNCaP cells cultured in CSS medium ([4]; 5.0 μM): 13%
Percent expression of AR in LNCaP cells cultured in complete medium ([4]; 0.04 μM): 98%
Percent expression of AR in LNCaP cells cultured in complete medium ([4]; 0.2 μM): 90%
Percent expression of AR in LNCaP cells cultured in complete medium ([4]; 1 μM): 47%
Percent expression of AR in LNCaP cells cultured in complete medium ([4]; 5.0 μM): 20%
Proliferation (% untreated control) in LNCaP cells cultured in CSS + DHT medium ([5]; 0.04 μM): 95 % untreated control
Proliferation (% untreated control) in LNCaP cells cultured in CSS + DHT medium ([5]; 0.2 μM): 99 % untreated control
Proliferation (% untreated control) in LNCaP cells cultured in CSS + DHT medium ([5]; 1 μM): 54 % untreated control
Proliferation (% untreated control) in LNCaP cells cultured in CSS + DHT medium ([5]; 5.0 μM): 17 % untreated control
proliferation of LNCaP cells ([5]; complete medium or CSS+1 nM DHT): reduced proliferation of the cells in a dose dependent compared to the control
Proliferation (% untreated control) in LNCaP cells cultured in complete medium ([5]; 0.04 μM): 100 % untreated control
Proliferation (% untreated control) in LNCaP cells cultured in complete medium ([5]; 0.2 μM): 85 % untreated control
Proliferation (% untreated control) in LNCaP cells cultured in complete medium ([5]; 1 μM): 68 % untreated control
Proliferation (% untreated control) in LNCaP cells cultured in complete medium ([5]; 5.0 μM): 54 % untreated control
Percent inhibition of TMPRSS2 expression ([6]; CSS + DHT medium, 0.04 μM): 0%
Percent inhibition of TMPRSS2 expression ([6]; CSS + DHT medium, 0.2 μM): 6%
Percent inhibition of TMPRSS2 expression ([6]; CSS + DHT medium, 1 μM): 43%
Percent inhibition of TMPRSS2 expression ([6]; CSS + DHT medium, 5.0 μM): 59%
Percent inhibition of TMPRSS2 expression ([6]; complete medium, 0.04 μM): 33%
Percent inhibition of TMPRSS2 expression ([6]; complete medium, 0.2 μM): 59%
Percent inhibition of TMPRSS2 expression ([6]; complete medium, 1 μM): 69%
Percent inhibition of TMPRSS2 expression ([6]; complete medium, 5.0 μM): 73%
Percent inhibition of full-length AR ([7]; CSS + DHT medium, 1.34 nM): 59%
Percent inhibition of full-length AR ([7]; CSS + DHT medium, 4.0 nM): 89%
Percent inhibition of full-length AR ([7]; CSS + DHT medium, 13.4 nM): 97%
Percent inhibition of full-length AR ([7]; complete medium, 1.34 nM): 17%
Percent inhibition of full-length AR ([7]; complete medium, 4.0 nM): 15%
Percent inhibition of full-length AR ([7]; complete medium, 13.4 nM): 37%
Percent inhibition of full-length AR ([7]; complete medium, 40 nM): 71%
ALT [8]: 35 IU/L
AST [8]: 45 IU/L
Albumin [8]: 4.1 g/dL

Source: patent USRE48461E1, “Modulation of androgen receptor expression” (Ionis Pharmaceuticals, Inc., priority 2012, dated 2021)
